Data published in ChEMBL document CHEMBL5052823, “Prc1 inhibitors and methods of treatment therewith” (2020).
The source made the active and inactive calls. No cut-off for these calls is given here.

Key:
T cell = test: Inhibition of RING1B-BMI1 H2Aub activity in human TEX cells at 6 to 25 uM relative to control; type: cell-based; conditions: dose 6-25 µM
Homo sapiens [1] = organism: Homo sapiens; test: Inhibition of RING1B-PCGF1 (unknown origin) activity at 0.4 to 25 uM relative to control; conditions: dose 0.4-25 µM
M9-ENL1 [2] = test: Antitumour activity against human M9-ENL1 cells transplanted in mouse assessed as decrease in leukemia development; type: functional, cell-based
Homo sapiens [3] = organism: Homo sapiens; test: Inhibition of BRCA1-BARD1 (unknown origin) activity at 12.2 to 50 uM relative to control; conditions: dose 12.2-50 µM
Homo sapiens [4] = organism: Homo sapiens; test: Inhibition of RING1B-BMI1 (unknown origin) interaction with nucleosome at 0.8 to 12.5 uM measured by EMSA assay relative to control; conditions: dose 0.8-12.5 µM
Homo sapiens [5] = organism: Homo sapiens; test: Inhibition of TRIM37 (unknown origin) activity at 12.2 to 50 uM relative to control; conditions: dose 12.2-50 µM
K562 [6] = test: Inhibition of RING1B-BMI1 H2Aub activity in human K562 cells at 6.2 to 25 uM relative to control; type: cell-based; conditions: dose 6.2-25 µM
M9-ENL1 [7] = test: Antitumour activity against human M9-ENL1 cells transplanted in mouse assessed as decrease in engraftment; type: functional, cell-based
M9-ENL1 [8] = test: Inhibition of colony formation in human M9-ENL1; type: functional, cell-based
K562 [9] = test: Inhibition of PRC1 in human K562 cells; type: cell-based
T-cell line = test: Induction on human TEX cells differentiation assessed as reduction in CD34 surface expression at 6 to 25 uM relative to control; type: functional, cell-based; conditions: dose 6-25 µM

## CC(C)c1c(-c2cccc3[nH]ccc23)[nH]c(C(=O)O)c1-c1c(Cl)ccc2[nH]ccc12
T cell
  inhibition: Active
Homo sapiens [1]
  inhibition: Active
M9-ENL1 [2]
  Activity: Active
Homo sapiens [3]
  inhibition: inactive
Homo sapiens [4]
  inhibition: Active
Homo sapiens [5]
  inhibition: inactive
K562 [6]
  inhibition: Active
M9-ENL1 [7]
  Activity: Active
M9-ENL1 [8]
  inhibition: Active
K562 [9]
  inhibition: Active
T-cell line
  Activity: Active

## CCc1c(-c2cccc3c2ccn3CCO)[nH]c(C(=O)O)c1-c1ccc(OC)cc1Cl
T-cell line
  Activity: inactive
